# Values quoted from earlier work as cited in US12377118B2, “Nanoparticle constructs for systemic co-delivery of anti-tumor agents” (CASE WESTERN RESERVE UNIVERSITY, priority 2019, dated 2025).
# System: 4T1 orthotopic mammary tumor
# Conditions: i.t.
compound,measurement,value
"Nc1nc2c(ncn2[C@@H]2O[C@@H]3COP(=O)(O)O[C@H]4[C@@H](O)[C@H](n5cnc6c(=O)[nH]c(N)nc65)O[C@@H]4COP(=O)(O)O[C@H]3[C@H]2O)c(=O)[nH]1 [free cdGMP, cyclic diguanylate monophosphate]",dose needed to regress early 4T1 primary tumors,up to 50 μg
